# Data from ChEMBL document CHEMBL2177012, “Inhibitor of ovarian cancer cells growth by virtual screening: a new thiazole derivative targeting human thymidylate synthase” (J Med Chem, 2012).
# Activity calls are given as the source filed them. No cut-off for these calls is given here.
# Experiments:
# [1] = tested on: Vero; assay: Growth inhibition of african green monkey Vero cells by crystal violet assay; format: cell-based; conditions: Chlorocebus sabaeus
# [2] = tested on: A2780; assay: Growth inhibition of human A2780 cells by crystal violet assay; format: functional, cell-based
# [3] = Growth inhibition of cDDP-resistant human A2780/CP70 cells by crystal violet assay; format: functional, cell-based
# [4] = Growth inhibition of cDDP-resistant human C13 cells by crystal violet assay; format: functional, cell-based
# [5] = tested on: 2008; assay: Growth inhibition of human 2008 cells by crystal violet assay; format: functional, cell-based
# [6] = target: T1, Thymidylate synthase (Homo sapiens, UniProt P04818); assay: Inhibition of human thymidylate synthase expressed in Escherichia coli at 25 uM incubated for 1 hr by spectrophotometry
# Target sequence in this assay (P04818 2-313 limits assumed): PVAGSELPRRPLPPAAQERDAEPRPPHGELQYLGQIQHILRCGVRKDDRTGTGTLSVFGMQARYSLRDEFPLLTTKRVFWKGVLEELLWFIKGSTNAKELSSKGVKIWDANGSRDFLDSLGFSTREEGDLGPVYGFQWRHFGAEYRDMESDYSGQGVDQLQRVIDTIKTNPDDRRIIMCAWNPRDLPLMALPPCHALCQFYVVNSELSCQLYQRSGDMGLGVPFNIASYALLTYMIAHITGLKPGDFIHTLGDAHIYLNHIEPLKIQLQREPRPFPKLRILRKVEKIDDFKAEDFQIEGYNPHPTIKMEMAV
# [7] = target: T1, Thymidylate synthase; assay: Inhibition of human thymidylate synthase expressed in Escherichia coli incubated for 1 hr by spectrophotometry
# Target sequence in this assay (P04818 whole entry): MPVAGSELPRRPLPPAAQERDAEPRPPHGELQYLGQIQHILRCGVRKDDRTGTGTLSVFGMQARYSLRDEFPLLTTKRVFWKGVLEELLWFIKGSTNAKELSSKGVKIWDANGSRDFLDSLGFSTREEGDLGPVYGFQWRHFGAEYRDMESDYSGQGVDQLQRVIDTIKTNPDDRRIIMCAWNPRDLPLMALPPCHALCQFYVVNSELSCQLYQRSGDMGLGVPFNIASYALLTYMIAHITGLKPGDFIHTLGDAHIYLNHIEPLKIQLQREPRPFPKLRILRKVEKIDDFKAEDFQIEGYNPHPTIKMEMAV
# [8] = tested on: C13; assay: Increase in ROS production in cDDP-resistant human C13 cells at 40 uM incubated for 72 hrs by CM-H2DCFDA dye based fluorometry; format: functional, cell-based
# [9] = tested on: C13; assay: Increase in ROS production in cDDP-resistant human C13 cells at 20 uM incubated for 72 hrs by CM-H2DCFDA dye based fluorometry; format: functional, cell-based
# [10] = tested on: 2008; assay: Increase in ROS production in human 2008 cells at 40 uM incubated for 72 hrs by CM-H2DCFDA dye based fluorometry; format: functional
# [11] = tested on: 2008; assay: Increase in ROS production in human 2008 cells at 20 uM incubated for 72 hrs by CM-H2DCFDA dye based fluorometry; format: functional
# [12] = tested on: C13; assay: Inhibition of DHFR protein expression in cDDP-resistant human C13 cells at 40 uM incubated for 72 hrs by Western blotting; format: functional, cell-based
# [13] = tested on: C13; assay: Inhibition of DHFR protein expression in cDDP-resistant human C13 cells at 20 uM incubated for 72 hrs by Western blotting; format: functional, cell-based
# [14] = tested on: 2008; assay: Inhibition of DHFR protein expression in human 2008 cells at 40 uM incubated for 72 hrs by Western blotting; format: functional; conditions: Homo sapiens, 2008, 72 h
# [15] = tested on: 2008; assay: Inhibition of DHFR protein expression in human 2008 cells at 20 uM incubated for 72 hrs by Western blotting; format: functional; conditions: Homo sapiens, 2008, 72 h
# [16] = tested on: C13; assay: Effect on thymidylate synthase protein expression in cDDP-resistant human C13 cells at 20 to 40 uM incubated for 72 hrs by Western blotting; format: functional, cell-based
# [17] = tested on: 2008; assay: Effect on thymidylate synthase protein expression in human 2008 cells at 20 to 40 uM incubated for 72 hrs by Western blotting; format: functional, cell-based
# [18] = target: T1, Thymidylate synthase; assay: Inhibition of human thymidylate synthase expressed in Escherichia coli at 100 uM incubated for 1 hr by spectrophotometry
# Target sequence in this assay (P04818 2-313 limits assumed): as the sequence (P04818 2-313 limits assumed) above
# [19] = target: T1, Thymidylate synthase; assay: Inhibition of human thymidylate synthase expressed in Escherichia coli incubated for 1 hr assessed as reduction in mTHF Vmax value by spectrophotometry based Lineweaver-Burk method relative to untreated control
# Target sequence in this assay (P04818 2-313 limits assumed): as above
# [20] = target: T1, Thymidylate synthase; assay: Inhibition of human thymidylate synthase expressed in Escherichia coli incubated for 1 hr using varying dUMP levels by spectrophotometry based Lineweaver-Burk method
# Target sequence in this assay (P04818 whole entry): as the sequence (P04818 whole entry) above
# [21] = target: T1, Thymidylate synthase; assay: Mixed inhibition of human thymidylate synthase expressed in Escherichia coli incubated for 1 hr using varying mTHF and dUMP levels by spectrophotometry based Lineweaver-Burk method
# Target sequence in this assay (P04818 2-313 limits assumed): as the sequence (P04818 2-313 limits assumed) above
# [22] = target: T1, Thymidylate synthase; assay: Inhibition of human thymidylate synthase expressed in Escherichia coli at 50 uM incubated for 1 hr by spectrophotometry
# Target sequence in this assay (P04818 2-313 limits assumed): as above
structure (smiles),measurement,setting,value
CCCCCn1c(=O)c(C(=O)Nc2ccc(N)cc2)c(O)c2ccccc21,IC50,[1],10.2 µM
same,IC50,[2],4.9 µM
same,IC50,[3],12.3 µM
same,IC50,[4],9.2 µM
same,IC50,[5],8.8 µM
same,inhibition,[6],41%
same,IC50,[7],71 µM
O=C(NC(=O)c1cn(CCNCCO)c(=O)[nH]c1=O)OCc1ccccc1,Activity,[8],inactive
same,Activity,[9],inactive
same,fold change (FC),[10],1.5
same,fold change (FC),[11],1.5
same,inhibition,[12],inactive
same,inhibition,[13],inactive
same,inhibition at 40 µM,[14],60%
same,inhibition at 20 µM,[15],40%
same,Activity,[16],inactive
same,IC50,[1],> 80 µM
same,IC50,[2],6.6 µM
same,IC50,[3],16.5 µM
same,IC50,[4],56.8 µM
same,Activity,[17],inactive
same,IC50,[5],24.1 µM
same,inhibition,[18],36%
same,IC50,[7],619 µM
CCN(CC)CCOC(=O)c1ccc(NS(=O)(=O)c2ccc(C(C)(C)C)cc2)cc1,IC50,[4],> 60 µM
same,IC50,[5],> 60 µM
same,inhibition,[18],15%
O=C(CC1S/C(=N\N=C\c2ccccc2O)N=C1O)Nc1cccc(C(F)(F)F)c1 (configuration not stated),inhibition,[19],60%
same,Ki,[20],2.5 µM
same,IC50,[1],30.3 µM
same,IC50,[2],19.4 µM
same,IC50,[3],36.4 µM
same,IC50,[4],28.3 µM
same,IC50,[5],21.1 µM
same,inhibition,[21],Active
same,inhibition,[6],33%
same,IC50,[7],90 µM
Cc1ccc(C(=O)C2=C(O)C(=O)N(CCN(C)C)C2c2ccc(OCC(N)=O)cc2)o1 (configuration not stated),IC50,[1],> 80 µM
same,IC50,[2],16.4 µM
same,IC50,[3],39.5 µM
same,IC50,[4],> 80 µM
same,IC50,[5],37.4 µM
same,inhibition,[18],16%
O=c1[nH]cc(F)c(=O)[nH]1 [FLUOROURACIL],IC50,[1],4.5 µM
same,IC50,[2],5.1 µM
same,IC50,[3],12.3 µM
same,IC50,[4],8.5 µM
same,IC50,[5],4.2 µM
COc1ccc(C)cc1NC(=O)C(=O)N/N=C/c1ccc(OCC(N)=O)cc1,IC50,[4],> 60 µM
same,IC50,[5],> 60 µM
same,inhibition,[22],35%
same,IC50,[7],112 µM
